Where “and” joins values, the source holds several entries; their conditions need not be identical. Equal values may be shown once.
Key:
[1] = target: WT Kv11.1 (Homo sapiens, UniProt Q12809); test: Whole-cell patch-clamp electrophysiology, drug in bath solution, WT; format: cell-based; parameters: expressed in transfected cells; Activation tail currents / Steady-state currents / Time constants of activation (τ): unit not given here; details: for Figure 5F value per cell vs Voltage (mV) / Figure 4D value per cell vs Voltage (mV) / Figure 5E value per cell vs Voltage (mV): individual replicates; for Inactivation time constant / Fast deactivation time constant / Slow deactivation time constant: Evacetrapib (15 µmol/L); for Peak tail current: Evacetrapib 15 µmol/L
Description: Peak stea dy-sta te current was
Tail current was fit with a […]

[2] = mouse, in vivo, ip, 40 mg/kg; cited from earlier work
[3] = humans; cited from earlier work
[4] = target: T1, wild-type KV11.1 (Homo sapiens, UniProt Q12809)
[5] = target: T1, wild-type KV11.1; test: cell-based
[6] = target: Kv11.1 missense variants, residues 536–628 (Homo sapiens, UniProt Q12809, Y475A); test: Multiplexed assay of variant effect (saturation mutagenesis, FACS surface trafficking); details: missense variant Y475A
Description: (§1) Cells were grown to 40%–60% confluence and transiently transfected first with Bxb1 integrase (pCAG–NLS–HA–Bxb1) using FuGENE 6 (Promega), followed by KCNH2 variant libraries 24 hours later. On day 6, cells were induced with 1 μg/mL doxycycline. Integrated cell lines expressed a single variant alongside mCherry, while nonintegrated cells were tagBFP-positive and mCherry-negative.
(§2) Saturation mutagenesis of Kv11.1 was performed using a modified promoterless dsRed-Express derivative plasmid. WT KCNH2 was inserted adjacent to an AttB site, and NdeI/BglII sites were created via synonymous mutations. […] These were purified, ligated, and electroporated into MegaX DH10B Electrocomp Cells.
(§3) The mutant pool was subcloned into the AttB-KCNH2-HA:IRES:mCherry plasmid, with an 18-mer poly-N barcode inserted adjacent to the AttB site. Each cloning step was validated via Sanger sequencing. To link barcodes with mutants, the library was digested, ligated, and PCR amplified. Final products were purified and sequenced on an Illumina NovaSeq. Reads were analyzed with a custom Python script to identify barcodes linked to single mutations.
(§4) HEK293T cells were cultured in αMEM (Corning) with 10% FBS and 1% GlutaMax at 37°C with 5% CO2. The KCNH2 variant library was integrated into a HEK293T “landing pad” cell line containing an AttP site between a tetracycline-inducible promoter and a blue fluorescent protein gene.
(§5) Cells were transfected using FuGENE 6, first with a plasmid expressing Bxb1 integrase (pCAG–NLS–HA–Bxb1) and then, the following day, with the KCNH2 variant library. On day 6, cells were incubated with 1 μg/mL doxycycline to induce expression from the landing pad’s promoter. Resulting stable cell lines expressed one variant and mCherry, while nonintegrated cells expressed tagBFP and were mCherry-negative.
(§6) Stable HEK293T cell lines were cultured in T75 flasks until 80%–90% confluent. […] After treatments, high-throughput quantitation was performed at the Vanderbilt University Medical Center Flow Cytometry Shared Resource Core (FCSR).
(§7) The treated HEK293T library was sorted via FACS to isolate cells with high mCherry expression and successful AttB plasmid integration. […] Sorted cells were repopulated and prepared for freezing, pelleted at 1 million cells per tube.
(§8) DNA was isolated from cell pools (100 μL QuickExtract per 1 million cells) and the barcode was PCR amplified for Illumina sequencing using Q5 polymerase (25–35 cycles). Sequencing reads were demultiplexed and analyzed using custom Python scripts (https://github.com/kroncke-lab/KCNH2_DMS) to identify barcodes.
(§9) The scores were then averaged across the 4 replicate experiments (separate transfections of the mutant library pool).

[7] = system: Kv11.1 missense variants, residues 536–628; test: as above
Description: as §1, §2, §3, §4, §5, §6, §7, §8, §9

[8] = target: Kv11.1 missense variants, residues 536–628 (Homo sapiens, UniProt Q12809, Y475D); test: as above; details: missense variant Y475D
Kv11.1 missense variants, residues 536–628 (Homo sapiens, UniProt Q12809, Y475D), sequence (Q12809 whole entry Y475D, the tested form may be a part): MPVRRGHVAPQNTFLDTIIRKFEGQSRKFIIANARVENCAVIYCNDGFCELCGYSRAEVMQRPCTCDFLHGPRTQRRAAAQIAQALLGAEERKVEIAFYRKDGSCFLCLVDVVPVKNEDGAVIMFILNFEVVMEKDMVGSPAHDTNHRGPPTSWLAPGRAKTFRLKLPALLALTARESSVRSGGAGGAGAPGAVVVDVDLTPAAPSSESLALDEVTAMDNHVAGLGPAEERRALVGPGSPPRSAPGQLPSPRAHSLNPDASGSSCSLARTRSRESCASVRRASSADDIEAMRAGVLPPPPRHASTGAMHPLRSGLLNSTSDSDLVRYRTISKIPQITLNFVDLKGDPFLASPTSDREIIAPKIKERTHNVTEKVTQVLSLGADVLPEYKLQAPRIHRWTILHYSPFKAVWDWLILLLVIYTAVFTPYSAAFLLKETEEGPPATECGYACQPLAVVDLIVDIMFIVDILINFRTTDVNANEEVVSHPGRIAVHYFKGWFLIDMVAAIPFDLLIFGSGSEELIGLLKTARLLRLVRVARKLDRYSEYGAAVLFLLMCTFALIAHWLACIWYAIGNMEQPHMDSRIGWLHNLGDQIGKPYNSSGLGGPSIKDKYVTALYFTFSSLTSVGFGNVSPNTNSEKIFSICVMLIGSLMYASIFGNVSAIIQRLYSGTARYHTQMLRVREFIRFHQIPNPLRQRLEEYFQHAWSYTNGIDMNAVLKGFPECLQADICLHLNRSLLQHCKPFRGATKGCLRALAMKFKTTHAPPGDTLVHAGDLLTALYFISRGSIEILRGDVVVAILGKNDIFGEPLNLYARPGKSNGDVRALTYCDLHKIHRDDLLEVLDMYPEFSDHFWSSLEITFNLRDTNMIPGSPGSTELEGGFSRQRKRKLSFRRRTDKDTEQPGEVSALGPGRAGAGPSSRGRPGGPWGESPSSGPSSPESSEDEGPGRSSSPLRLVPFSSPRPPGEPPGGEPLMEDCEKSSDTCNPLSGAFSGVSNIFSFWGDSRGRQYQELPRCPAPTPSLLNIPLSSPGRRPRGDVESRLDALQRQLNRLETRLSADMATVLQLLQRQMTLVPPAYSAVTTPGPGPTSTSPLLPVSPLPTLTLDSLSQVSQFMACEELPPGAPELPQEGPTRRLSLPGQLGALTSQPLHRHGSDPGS
Description: as §1, §2, §3, §4, §5, §6, §7, §8, §9

WT Kv11.1, sequence (Q12809 whole entry): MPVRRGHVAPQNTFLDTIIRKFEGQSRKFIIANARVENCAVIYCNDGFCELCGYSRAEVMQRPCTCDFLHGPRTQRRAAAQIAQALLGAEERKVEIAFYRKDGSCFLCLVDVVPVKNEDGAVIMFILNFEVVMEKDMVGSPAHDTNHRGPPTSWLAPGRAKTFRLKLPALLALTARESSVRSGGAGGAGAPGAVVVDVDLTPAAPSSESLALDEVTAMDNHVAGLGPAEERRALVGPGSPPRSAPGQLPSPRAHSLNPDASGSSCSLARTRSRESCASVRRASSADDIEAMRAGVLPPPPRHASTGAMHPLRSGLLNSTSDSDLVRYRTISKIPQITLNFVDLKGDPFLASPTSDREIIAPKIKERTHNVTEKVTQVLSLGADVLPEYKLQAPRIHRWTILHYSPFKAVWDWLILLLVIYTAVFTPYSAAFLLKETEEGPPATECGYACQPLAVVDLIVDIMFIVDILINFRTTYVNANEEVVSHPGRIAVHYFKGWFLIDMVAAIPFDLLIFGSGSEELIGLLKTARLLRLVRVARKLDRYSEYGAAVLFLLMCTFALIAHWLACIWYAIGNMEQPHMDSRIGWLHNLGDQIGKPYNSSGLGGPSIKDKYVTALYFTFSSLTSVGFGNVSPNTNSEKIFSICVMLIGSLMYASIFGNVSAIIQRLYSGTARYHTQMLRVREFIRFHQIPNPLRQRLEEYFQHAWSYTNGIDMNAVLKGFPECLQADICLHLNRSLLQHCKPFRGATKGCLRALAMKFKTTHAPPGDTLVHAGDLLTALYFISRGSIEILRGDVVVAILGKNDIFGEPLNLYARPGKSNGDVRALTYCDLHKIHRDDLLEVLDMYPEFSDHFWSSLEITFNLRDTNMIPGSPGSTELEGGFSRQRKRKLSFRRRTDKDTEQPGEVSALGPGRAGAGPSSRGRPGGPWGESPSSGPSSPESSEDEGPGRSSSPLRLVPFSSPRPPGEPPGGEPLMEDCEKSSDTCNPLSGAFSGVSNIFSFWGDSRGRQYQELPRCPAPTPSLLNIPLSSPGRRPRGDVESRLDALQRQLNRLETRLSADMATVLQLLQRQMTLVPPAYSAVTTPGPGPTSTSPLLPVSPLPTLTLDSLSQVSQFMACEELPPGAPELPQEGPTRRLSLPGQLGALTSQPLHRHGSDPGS
T1 sequence (Q12809 whole entry): as above
Kv11.1 missense variants, residues 536–628 (Homo sapiens, UniProt Q12809, Y475A), sequence (Q12809 whole entry Y475A, the tested form may be a part): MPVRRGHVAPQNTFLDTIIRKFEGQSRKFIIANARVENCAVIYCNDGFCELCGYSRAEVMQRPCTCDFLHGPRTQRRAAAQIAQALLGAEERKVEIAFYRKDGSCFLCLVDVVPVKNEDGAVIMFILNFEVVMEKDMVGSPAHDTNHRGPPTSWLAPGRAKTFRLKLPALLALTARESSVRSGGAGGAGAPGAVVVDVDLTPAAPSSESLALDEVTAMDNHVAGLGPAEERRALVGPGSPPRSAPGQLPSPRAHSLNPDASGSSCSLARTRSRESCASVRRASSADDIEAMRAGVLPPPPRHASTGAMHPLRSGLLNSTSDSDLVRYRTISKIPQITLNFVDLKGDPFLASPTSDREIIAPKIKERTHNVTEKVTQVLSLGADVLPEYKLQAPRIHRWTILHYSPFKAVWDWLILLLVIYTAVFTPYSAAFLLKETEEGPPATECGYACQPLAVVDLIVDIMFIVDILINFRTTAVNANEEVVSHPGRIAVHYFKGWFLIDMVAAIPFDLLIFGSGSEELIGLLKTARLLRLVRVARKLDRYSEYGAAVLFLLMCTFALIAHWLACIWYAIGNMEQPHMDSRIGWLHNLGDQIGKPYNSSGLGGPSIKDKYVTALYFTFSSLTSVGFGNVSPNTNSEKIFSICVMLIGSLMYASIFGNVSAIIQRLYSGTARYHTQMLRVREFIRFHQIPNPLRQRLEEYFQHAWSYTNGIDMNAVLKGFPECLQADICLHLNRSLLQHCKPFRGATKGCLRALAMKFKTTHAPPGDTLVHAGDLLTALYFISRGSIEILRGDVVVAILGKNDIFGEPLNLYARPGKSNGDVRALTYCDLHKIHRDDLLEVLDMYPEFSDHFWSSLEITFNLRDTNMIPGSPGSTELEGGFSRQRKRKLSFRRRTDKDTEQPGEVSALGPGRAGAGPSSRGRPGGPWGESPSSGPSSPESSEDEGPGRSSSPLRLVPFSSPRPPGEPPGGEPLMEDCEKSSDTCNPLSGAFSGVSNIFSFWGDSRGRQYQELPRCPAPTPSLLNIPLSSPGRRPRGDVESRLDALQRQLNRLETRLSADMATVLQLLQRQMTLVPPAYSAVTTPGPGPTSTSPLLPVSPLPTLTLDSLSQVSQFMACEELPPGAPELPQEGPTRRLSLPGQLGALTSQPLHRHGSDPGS

## Cc1cc(C)c2c(c1)[C@@H](N(Cc1cc(C(F)(F)F)cc(C(F)(F)F)c1)c1nnn(C)n1)CCCN2C[C@H]1CC[C@H](C(=O)O)CC1 [Evacetrapib, evacetrapib]
[1]; Voltage -90 mV
  Figure 5F value per cell vs Voltage (mV): 3977.04 and 1576.1 and 1475.11 and 1269.7 and 1679.13 and 1263.86 and 1827.67 and 3682.76
[1]; Voltage -100 mV
  Figure 4D value per cell vs Voltage (mV): 5.9805 and 6.106 and 5.3207 and 4.4265 and 4.931 and 4.972 and 6.757 and 6.876
  Figure 5E value per cell vs Voltage (mV): 366.452 and 329.996 and 269.807 and 269.273 and 487.907 and 220.859 and 396.726 and 472.93
  Figure 5F value per cell vs Voltage (mV): 2314.55 and 1511.55 and 907.537 and 927.568 and 1874.88 and 839.178 and 1131.37 and 2375.79
[1]; Voltage -110 mV
  Figure 4D value per cell vs Voltage (mV): 4.757 and 4.592 and 3.934 and 3.367 and 4.027 and 3.635 and 4.594 and 4.969
  Figure 5E value per cell vs Voltage (mV): 253.98 and 258.663 and 186.827 and 175.481 and 304.962 and 138.114 and 283.639 and 296.398
  Figure 5F value per cell vs Voltage (mV): 1302.55 and 1153.11 and 698.663 and 755.178 and 1277.44 and 611.635 and 865.285 and 1384.34
[1]; Voltage -120 mV
  Figure 4D value per cell vs Voltage (mV): 3.611 and 3.4981 and 2.97 and 2.532 and 3.293 and 2.583 and 3.34 and 3.894
  Figure 5E value per cell vs Voltage (mV): 244.589 and 219.981 and 132.908 and 108.36 and 189.369 and 89.3521 and 190.069 and 167.699
  Figure 5F value per cell vs Voltage (mV): 3324.93 and 1104 and 582.988 and 644.385 and 999.7 and 579.372 and 805.065 and 656.376
[1]; Voltage step 0, WT
  Inactivation time constant: 11.1 ± 0.6 ms
[1]; Voltage step 10, WT
  Inactivation time constant: 8.5 ± 0.3 ms
[1]; Voltage step 20, WT
  Inactivation time constant: 6.3 ± 0.2 ms
[1]; Voltage step 30, WT
  Inactivation time constant: 4.6 ± 0.2 ms
[1]; Voltage step 40, WT
  Inactivation time constant: 3.4 ± 0.2 ms
[1]; Voltage step 50, WT
  Inactivation time constant: 2.6 ± 0.2 ms
[1]; Voltage step 60, WT
  Inactivation time constant: 2.1 ± 0.1 ms
[1]; Voltage step 70, WT
  Inactivation time constant: 1.6 ± 0.1 ms
[1]; Voltage step (mV) 0, WT, mean±SD
  Peak tail current: 66.0±31.5 pA/pF
[1]; Voltage step (mV) 10, WT, mean±SD
  Peak tail current: 53.8±28.6 pA/pF
[1]; Voltage step (mV) 20, WT, mean±SD
  Peak tail current: 43.6±25.2 pA/pF
[1]; Voltage step (mV) 30, WT, mean±SD
  Peak tail current: 34.5±20.7 pA/pF
[1]; Voltage step (mV) 40, WT, mean±SD
  Peak tail current: 28.0±16.9 pA/pF
[1]; Voltage step (mV) -10, WT, mean±SD
  Peak tail current: 78.0±33.4 pA/pF
[1]; Voltage step (mV) -20, WT, mean±SD
  Peak tail current: 89.2±35.1 pA/pF
[1]; Voltage step (mV) -30, WT, mean±SD
  Peak tail current: 95.9±34.9 pA/pF
[1]; Voltage step (mV) -40, WT, mean±SD
  Peak tail current: 95.8±33.5 pA/pF
[1]; Voltage step (mV) -50, WT, mean±SD
  Peak tail current: 86.7±30.0 pA/pF
[1]; Voltage step (mV) -60, WT, mean±SD
  Peak tail current: 68.2±25.6 pA/pF
[1]; Voltage step (mV) -70, WT, mean±SD
  Peak tail current: 41.5±21.4 pA/pF
[1]; Voltage step (mV) -80, WT, mean±SD
  Peak tail current: 7.2±20.3 pA/pF
[1]; Voltage step (mV) -90, WT, mean±SD
  Peak tail current: -32.8±24.4 pA/pF
[1]; Voltage step (mV) -100, WT, mean±SD
  Peak tail current: -76.7±33.7 pA/pF
[1]; Voltage step (mV) -110, WT, mean±SD
  Peak tail current: -125.2±46.2 pA/pF
[1]; Voltage step (mV) -120, WT, mean±SD
  Peak tail current: -176.7±61.8 pA/pF
[1]; Voltage step -10, WT
  Inactivation time constant: 13.6 ± 0.7 ms
[1]; Voltage step -20, WT
  Inactivation time constant: 15.5 ± 0.9 ms
[1]; Voltage step -60, WT
  Fast deactivation time constant: 801.3 ± 344.8 ms
  Slow deactivation time constant: 6986.4 ± 2967.3 ms
[1]; Voltage step -70, WT
  Fast deactivation time constant: 866.4 ± 104.0 ms
  Slow deactivation time constant: 3787.8 ± 1272.5 ms
[1]; Voltage step -90, WT
  Fast deactivation time constant: 393.5 ± 46.0 ms
  Slow deactivation time constant: 2093.9 ± 1091.1 ms
[1]; Voltage step -100, WT
  Fast deactivation time constant: 351.7 ± 97.5 ms
  Slow deactivation time constant: 1485.3 ± 634.8 ms
[1]; Voltage step -110, WT
  Fast deactivation time constant: 237.3 ± 62.3 ms
  Slow deactivation time constant: 1006.0 ± 306.8 ms
[1]; Voltage step -120, WT
  Fast deactivation time constant: 167.8 ± 54.1 ms
  Slow deactivation time constant: 1087.1 ± 925.0 ms
[1]; WT
  rate of activation: decelerated the rate of activation
  rate of deactivation: slowed the rate of deactivation
[1]; WT channels
  rate of inactivation: did not affect the rate of inactivation
  recovery from inactivation: slight delay in the reopening from inactivation
[1]; WT, evacetrapib 15 μmol/L, individual cells
  Time constants of activation (τ): 764.055 and 877.888 and 1509 and 938.338 and 764.764 and 413.052
[1]; WT, evacetrapib 15 μmol/L, mean ± SD
  Activation τ: 877 ± 360 ms
[1]; WT, mean±SD, N=11
  Max (voltage dependence of activation): 78.2 ± 26.7 pA/pF
  Slope factor (voltage dependence of activation): 9.0 ± 1.6
  V1/2 (voltage dependence of activation): -4.0 ± 8.4 mV
[1]; whole-cell patch-clamp
  WT currents: increases WT currents
[2]
  peak plasma levels: 35 µmol/L
[3]
  peak plasma concentrations: 1.9 to 8.2 µM
[4]
  inhibition of WT channels: did not inhibit WT channels
[5]
  EC50: 8.2 µM
[6]
  score (Figure 6B): 25.1035
[7]; 10 μmol/L, 24 hours
  share of the 546 variants rescued by either drug that evacetrapib improved: 45%
[7]; 16 out of 94
  share of known pathogenic variants in the pore region with improved trafficking: 17%
[7]; 248 out of 971, 10 μmol/L, 24 hours
  share of all trafficking-deficient variants in this channel segment with improved trafficking: 25%
[7]; of 971 variants with ≥90% loss of surface expression, 10 μmol/L, 24 hours
  number of trafficking-deficient variants with improved trafficking: 248
[7]; out of 94, 10 μmol/L, 24 hours
  number of known pathogenic variants in the pore region with improved trafficking: 16
[8]
  score (Figure 6B): 152.736

Source: publication PMC12643509, “High-throughput screens identify genotype-specific therapeutics for channelopathies” (JCI Insight, 2025)
